One data set deals with spinal-ligated rats. It is filed as in vivo, rat. Here is the method: This study aimed to evaluate the analgesic indications of compound C using the Chung model of neuropathic pain in rats. This study was performed at PsychoGenics, Inc., headquartered at 765 Old Saw Mill River Road, Tarrytown, N.Y.
Male Sprague Dawley rats (100-125 g) from Harlan (Indianapolis, Ind.) were used in the study. Upon receipt, rats were assigned unique identification numbers and were group housed with 3 rats per cage in polycarbonate cages with micro-isolator filter tops. All rats were examined, handled, and weighed prior to initiation of the study to assure adequate health and suitability. During the course of the study, 12/12 light/dark cycles were maintained, with lights on at 7:00 am EST. The room temperature was maintained between 20 and 23° C. with a relative humidity maintained around 50%. Chow and water were provided ad libitum for the duration of the study.
All compounds were administered at a dose volume of 5 ml/kg, q.d. for 5 days (Days 17-21 post-surgery). Reference compound: Gabapentin (100 mg/kg; TRC, Lot No. 1-SWM-154-1) was dissolved in 0.5% carboxy-methylcellulose (CMC) in water and administered orally. Test Compound: Compound C (0.25, 0.625, and 1.25 mg/kg; Lot n/a) was dissolved in distilled H2O to a stock concentration (20×), divided into single-use aliquots, and frozen. On each test day, one aliquot was thawed and diluted 20-fold with PBS (pH 7.2), and used as stock for formulation of test doses. Compound C was administered subcutaneously.
Under general anesthesia with continuous inhalation of isoflurane, surgery was performed with aseptic procedures in surgery unit. The skin at the area of the lower lumber and sacral level of the rat was shaved and disinfected with betadine and alcohol. Sterile ophthalmic ointment was used to lubricate the eyes. Animals were observed continuously for the level of anesthesia, testing for the animal's reflex response to tail or paw pinch and closely monitoring the animal's breathing. A heating pad was used to maintain body temperature at 37° C. while the animals recovered from anesthesia. A left longitudinal incision at the level next to the vertebral column was made and the left paraspinal muscles were separated. The transverse process of L6 was removed and nearby connective tissue cleaned to expose L5 and L6 spinal nerves. After the nerves were isolated and clearly visualized, 4-0 silk threads were used to ligate the left L5. The muscles were sutured with 4-0 silk threads and the wound closed by staples. All rats received an analgesic (buprenorphine, 0.05 mg/kg, s.c.) immediately before and 6 hours after surgery. Each rat was monitored until awake and moving freely around the recovery chamber. Animals were then single-housed for the duration of the study. Rats were allowed to recover for 2 weeks after surgery prior to testing.
Withdrawal from a mechanical stimulus was measured by applying von Frey (VF) filaments of ascending bending force to the plantar surface of the hind paws (ipsilateral and contralateral). A positive response was defined as withdrawal from the von Frey filament. Confirmation of the paw withdrawal threshold (PWT) is tested by assessing the response to the filament above and below the withdrawal response.
Rats were brought to the experimental room and allowed to habituate in the room for one hour prior to testing, and acclimated to the observation chambers for 15 minutes prior to taking PWT measurements.
Pre-operative baseline testing: Prior to surgery, all rats were tested using the VF test.
Post-operative baseline testing: On Day 14 following surgery, baseline responses were taken from all surgically-operated rats, and an ipsilateral PWT greater than 4.5 g was used as an exclusion criterion (13 rats excluded). Rats were subsequently balanced and assigned to treatment groups (n=10 per group) based on their post-op PWT values. […]

In data set [1] the test system is mouse embryonic stem cells derived cardiomyocytes (mES-CM). It is filed as cell-based.
Where [2] appears, read: baseline of group assigned to 100 mg/kg, mean ± SEM.

“Also recorded” adds a separate entry of the source.

On to `NCC1(CC(=O)O)CCCCC1` [Gabapentin], for which, in the data set on spinal-ligated rats (100 mg/kg orally q.d. 5 days, Day 21, all time points), the “ipsilateral paw withdrawal threshold compared to vehicle, chronic” value was “significantly increased”. Besides, in the data set with spinal-ligated rats (100 mg/kg orally, Day 17, data collapsed across 1 and 3 hour time points), the “ipsilateral paw withdrawal threshold compared to vehicle, acute” value is “significantly increased”. In addition, the “time dependence of effect on ipsilateral paw withdrawal threshold, chronic” value in the data set on spinal-ligated rats (100 mg/kg orally, Day 21, 1 hr. versus 3 hr. post-administration) is reported as “significantly greater at 1 hr. compared to 3 hr. post-administration”. In addition, the “ipsilateral paw withdrawal threshold (PWT), summary” value in the data set on spinal-ligated rats (100 mg/kg, acute or 5-day administration, 1 and 3 hours following administration) is “significantly increased”. In the data set on spinal-ligated rats (setting [2]), the “Contralateral paw withdrawal threshold prior to drug administration” value is reported as 48.70 ± 5.83 and the “Ipsilateral paw withdrawal threshold prior to drug administration” value is given as 2.94 ± 0.29. The “signs of sedation or toxicity” value with spinal-ligated rats (during pretreatment or testing, gabapentin 100 mg/kg orally, compound C 0.25, 0.625, 1.25 mg/kg subcutaneously) is reported as “not observed”.

For `NC1=N[C@H](O)[C@H]2[C@H]3O[C@]4(O)O[C@@H]([C@@H](O)[C@@]2(N1)[C@@H]4O)[C@]3(O)CO` [TTX, Tetrodotoxin], the “effect of positive control on action potential generation in cardiomyocytes” value in data set [1] is given as “only the higher dose inhibited action potential generation; also recorded: quite evident; also recorded: significant action”.

These data come from US8399026B2, “Peptides isolated from spider venom, and uses thereof” (priority 2009, dated 2013).
